# Measurements from patent publication US20220168394A1, “METHODS OF INDUCING OR RESTORING IMMUNE TOLERANCE” (INSERM (Institut National de la Santé et de la Recherche …, priority 2019, published 2022).
# Where two headings read alike, the source gives them in different places.
# Columns and labels:
# Scurfy mice [1] = system: Scurfy mice
# Description: (§1) First, scurfy mice were treated with an immunosuppressor: Temsirolimus (LC laboratories, Woburn, USA) was injected S.C at the dose of 2 mg/kg at day 8 and day 10 after birth. This treatment was continued twice a week in some experiment. Anti-CD3 Fab'2 (clone 145-2C11, BioXCell, West Lebanon, USA) was injected S.C at 20 μg/day during 5 days at day 8 after birth. Cyclophosphamide (European Pharmacopoeia (EP) Reference Standard, Merck KGaA, Darmstadt, Germany) was injected I.P. at 50, 100, or 150 mg/kg 10 days after birth. At day 10 or day 14, CD4^+CD25^+CD45.1^+cells (containing putative Tregs) or engineered CD4^+T cells (Foxp3.LNGFR or LNGFR) from Scurfy mice were injected at 0.5×10^6, 0.75×10^6 or 1×10^6 of cells respectively via I.P injections. […] In indicated experiments, together with cells, Proleukin (human IL-2, aldesleukine, Novartis) was injected at 1.000 UI/g via I.P and during 5 days then once a week.
# (§2) As shown in FIGS. 1-7, the inventors compared 7 different experimental protocols to identify the one allowing to test the efficacy of Treg to treat Scurfy autoimmune syndrome. Tregs were sorted on the basis of CD4 and CD25 expression from CD45.1 congenic B6 mice and injected at a dose of 5×10^5 intra-peritoneally at day 10 or 14. The criteria was the scurfy score measured every 3 to 4 days from birth and when signs of efficiency evidenced improved scores for mice transplanted with Tregs, survival was followed. Three drugs were tested as conditioning regimens: Temsirolimus, subcutaneously injected at a dose of 2 mg/kg daily from day 4 to day 28 or from day 4 to day 9 (post-birth), anti-CD3 Fab'2, subcutaneously injected at a dose of 20 micrograms/recipient, daily from day 8 to day 12, Cyclophosphamide at 3 different doses (50, 100 and 150 mg/kg) injected at day 10.
# Scurfy mice [2] = experiment: Survival of Scurfy mice; assay type: in vivo
# Description: (§3) Scurfy phenotype was obtained by backcrossing on B6. 129S7-Rag1tm1Mom/J background, allowing generation of homozygous XSf/XSfRag1−/− female. Crossing of these females with WT C57BL/6J mice result in the birth only of diseased XSf/Y.Rag1−/+male.
# as §1
# Values are represented as means ±SD, unless stated otherwise. GraphPad Prism 6.0 was used for all statistical analyses. P value was calculated with a confidence interval of 95% to indicate the statistical significance between groups. Statistical test included non-parametric Mann-Whitney test, Fischer exact test or two ways ANOVA depending on the dataset. A P value <0.05 was considered statistically significant. Statistically significant differences between groups are noted in figures with asterisks (*p<0.05, **p<0.01, ***p<0.001, ****p<0.0001). Correlations were performed with a non-parametric Spearman correlation. Survival was analyzed with Log-rank test (Mantel-Cox).
# as §2
# Scurfy mice [3] = system: Scurfy mice; remark: listed apart in the source
# Description: as §3, §1, §2
# CD4+ T cells = experiment: T cell depletion after immunosuppressive drug; parameters: species or system mice; conditions: mouse, in vivo
# Description: as §1
# [4] = first series, Cy 50 mg/kg conditioned Scurfy mice
Compound,general toxicity (Scurfy mice [1]; 50 mg/kg at day 10),general toxicity revealed by the health status of the mice (Scurfy mice [1]; 100 and 150 mg/kg at day 10),"toxicity observed (Scurfy mice [1]; Cy 50, 100 or 150 at day 10, correlated with dose)",toxicities in young animals (Scurfy mice [1]; even low dose of Cy),"delay of the death of scurfy mice (Scurfy mice [2]; cyclophosphamide at all doses (50, 100 and 150 mg/kg) at day 10, no cells)",mean survival (Scurfy mice [2]; [4]),"survival following Cy injection (Scurfy mice [2]; increased from 30 (untreated mice) to 90 days, p=0.01)","mean survival (Scurfy mice [2]; second series, 90 days of follow-up)","scurfy score (Scurfy mice [3]; mouse, in vivo)",CD4 T cells nadir (time after injection) (CD4+ T cells),T cells depletion across doses (CD4+ T cells),cell count normalized (time after injection) (CD4+ T cells),life expectancy (Scurfy mice [2]; Temsirolimus twice a week starting at day 8),"scurfy score (Scurfy mice [3]; Temsirolimus twice a week starting at disease onset (day 8), drug alone)","improvement of Scurfy score after the infusion of Tregs (Scurfy mice [3]; drug used as conditioning regimen, 5×10^5 Tregs i.p. at day 10 or 14)","effect on auto-immunity in Scurfy settings (Scurfy mice [3]; low dose IL-2, 1.000 UI/g)"
"O.O=P1(N(CCCl)CCCl)NCCCO1 (centres unmarked) [Cyclophosphamide, 2-[bis(2-chloroethyl)amino]-tetrahydro-2H-1,3,2-oxazaphosphorine-2-oxide monohydrate]",absent,general toxicity,growth retardation and a transient alopecia,alopecia and growth retardation,more than 60 days,39 days,90 days,47 days,more stable scurfy score,4 days,not different with the three doses,10 days,,,,
CO[C@H]1C[C@@H]2CC[C@@H](C)[C@@](O)(O2)C(=O)C(=O)N2CCCC[C@H]2C(=O)O[C@H]([C@H](C)C[C@@H]2CC[C@@H](OC(=O)C(C)(CO)CO)[C@H](OC)C2)CC(=O)[C@H](C)/C=C(\C)[C@@H](O)[C@@H](OC)C(=O)[C@H](C)C[C@H](C)/C=C/C=C/C=C/1C [Temsirolimus],,,,,,,,,,,,,doubling of life expectancy,reduction of Scurfy score,did not allow to reveal any improvement,
"IL-2: Proleukin (human IL-2, aldesleukine, Novartis)",,,,,,51 days,,,,,,,,,,did not worsen auto-immunity
